Test results published in ChEMBL document CHEMBL1138574, “Regioselective synthesis and stereochemical structure of anti-tumor active dispiro[3H-indole-3,2'-pyrrolidine-3',3''-piperidine]-2(1H),4''-diones” (2009).

How the values were obtained:
Format in all cases: functional
Conditions in all cases: route intraperitoneal
Rattus norvegicus [1] = assay: Antiinflammatory activity in Wister albino rat assessed as inhibition of carrageenan-induced paw oedema at 50 mg/kg, ip administered 1 hr before carrageenan challenge measured after 2 hrs of induction of inflammation relative to control
Rattus norvegicus [2] = assay: Antiinflammatory activity in Wister albino rat assessed as inhibition of carrageenan-induced paw oedema at 50 mg/kg, ip administered 1 hr before carrageenan challenge measured after 1 hr of induction of inflammation relative to control
Rattus norvegicus [3] = assay: Antiinflammatory activity in Wister albino rat assessed as inhibition of carrageenan-induced paw oedema at 50 mg/kg, ip administered 1 hr before carrageenan challenge measured after 4 hrs of induction of inflammation relative to control
Rattus norvegicus [4] = assay: Antiinflammatory activity in Wister albino rat assessed as inhibition of carrageenan-induced paw oedema at 50 mg/kg, ip administered 1 hr before carrageenan challenge measured after 4 hrs of induction of inflammation relative to indomethacin
Rattus norvegicus [5] = assay: Antiinflammatory activity in Wister albino rat assessed as inhibition of carrageenan-induced paw oedema at 50 mg/kg, ip administered 1 hr before carrageenan challenge measured after 24 hrs of induction of inflammation relative to control
Rattus norvegicus [6] = assay: Antiinflammatory activity in Wister albino rat assessed as inhibition of carrageenan-induced paw oedema at 50 mg/kg, ip administered 1 hr before carrageenan challenge measured after 3 hrs of induction of inflammation relative to control
Rattus norvegicus [7] = assay: Antiinflammatory activity in Wister albino rat assessed as inhibition of carrageenan-induced paw oedema at 10 mg/kg, ip administered 1 hr before carrageenan challenge measured after 24 hrs of induction of inflammation relative to control
Rattus norvegicus [8] = assay: Antiinflammatory activity in Wister albino rat assessed as inhibition of carrageenan-induced paw oedema at 10 mg/kg, ip administered 1 hr before carrageenan challenge measured after 3 hrs of induction of inflammation relative to control
Rattus norvegicus [9] = assay: Antiinflammatory activity in Wister albino rat assessed as inhibition of carrageenan-induced paw oedema at 10 mg/kg, ip administered 1 hr before carrageenan challenge measured after 2 hrs of induction of inflammation relative to control
Rattus norvegicus [10] = assay: Antiinflammatory activity in Wister albino rat assessed as inhibition of carrageenan-induced paw oedema at 10 mg/kg, ip administered 1 hr before carrageenan challenge measured after 4 hrs of induction of inflammation relative to control
Rattus norvegicus [11] = assay: Antiinflammatory activity in Wister albino rat assessed as inhibition of carrageenan-induced paw oedema at 10 mg/kg, ip administered 1 hr before carrageenan challenge measured after 1 hr of induction of inflammation relative to control

SMILES	inhibition in vivo at 50 mg/kg (Rattus norvegicus [1]) [%]	inhibition in vivo at 50 mg/kg (Rattus norvegicus [2]) [%]	inhibition in vivo at 50 mg/kg (Rattus norvegicus [3]) [%]	inhibition in vivo at 50 mg/kg (Rattus norvegicus [4]) [%]	inhibition in vivo at 50 mg/kg (Rattus norvegicus [5]) [%]	inhibition in vivo at 50 mg/kg (Rattus norvegicus [6]) [%]	inhibition in vivo at 10 mg/kg (Rattus norvegicus [7]) [%]	inhibition in vivo at 10 mg/kg (Rattus norvegicus [8]) [%]	inhibition in vivo at 10 mg/kg (Rattus norvegicus [9]) [%]	inhibition in vivo at 10 mg/kg (Rattus norvegicus [10]) [%]	inhibition in vivo at 10 mg/kg (Rattus norvegicus [11]) [%]
CN1C/C(=C\c2ccc(-c3cccs3)cc2)C(=O)[C@]2(C1)[C@@H](c1ccc(-c3cccs3)cc1)CN(C)[C@@]21C(=O)Nc2ccccc21	70.7	68	71.4	126	79.8	74.8	–	–	–	–	–
CN1C/C(=C\c2ccc(Br)cc2)C(=O)[C@]2(C1)[C@@H](c1ccc(Br)cc1)CN(C)[C@@]21C(=O)N(C)c2ccccc21	49.1	53.5	46.8	82.8	83.5	47.6	–	–	–	–	–
CN1C/C(=C\c2ccc(F)cc2)C(=O)[C@]2(C1)[C@@H](c1ccc(F)cc1)CN(C)[C@@]21C(=O)N(C)c2ccccc21	62	75.8	47.2	83.5	27.2	55.8	–	–	–	–	–
Cc1ccc(/C=C2\CN(C)C[C@@]3(C2=O)[C@@H](c2ccc(C)cc2)CN(C)[C@@]32C(=O)N(C)c3ccccc32)cc1	62	53.5	68.8	122	57	65	–	–	–	–	–
CN1C/C(=C\c2ccc(F)cc2)C(=O)[C@]2(C1)[C@@H](c1ccc(F)cc1)CN(C)[C@@]21C(=O)Nc2ccccc21	78.4	80.1	61.5	109	57	70.9	–	–	–	–	–
CN1C/C(=C\c2ccccc2)C(=O)[C@]2(C1)[C@@H](c1ccccc1)CN(C)[C@@]21C(=O)N(C)c2ccccc21	70.7	68	68.8	122	26.5	75.6	–	–	–	–	–
Cc1ccc(/C=C2\CN(C)C[C@@]3(C2=O)[C@@H](c2ccc(C)cc2)CN(C)[C@@]32C(=O)Nc3ccccc32)cc1	52.1	69.2	50.7	89.7	22.1	50.9	–	–	–	–	–
CN1C/C(=C\c2ccccc2)C(=O)[C@]2(C1)[C@@H](c1ccccc1)CN(C)[C@@]21C(=O)Nc2ccccc21	73.3	77	70.9	126	65.1	71.4	–	–	–	–	–
CN1C/C(=C\c2ccc(Br)cc2)C(=O)[C@]2(C1)[C@@H](c1ccc(Br)cc1)CN(C)[C@@]21C(=O)Nc2ccccc21	69.3	77.7	66.8	118	82.7	65.2	–	–	–	–	–
COc1ccc2c(c1)c(CC(=O)O)c(C)n2C(=O)c1ccc(Cl)cc1 [INDOMETHACIN]	–	–	–	–	–	–	57	61.3	70.7	56.5	72.9
